Results on three compounds are retold here after patent US20040142920A1, “Bipiperidinyl-derivatives and their use as chemokine receptors inhibitors” (priority 2001, published 2004).

Test [1] addresses T1, Human CCR5 (Homo sapiens, UniProt P51681). The test can be described thus: CCR5 functional assay - Ca2+ mobilization in CHO K1 transfectants. It is filed as cell-based. The arrangement: expressed in transfected cells. As to the method:
b) CCR5 Functional Assay—Ca^2+ Mobilization
These CCR5 transfectants are used for assessing Ca^2+ mobilization in response to stimulation by the CCR5 ligands MIP-1α, MIP-1β, HCC-1(9-74) or RANTES. For the assay the cells are loaded with a Ca^2+-sensitive fluorochrome (Fluo3 or Fluo4). Ligand concentrations between 0.01-100 nM are used to induce Ca^2+ mobilization which is monitored in a fluorometer with appropriate settings.
To assess the activity of the compounds to be tested, a baseline fluorescence reading is taken after which the compounds at the desired concentration are added to the cells and fluorescence is further recorded for a certain time to assess whether compounds show agonistic effects. Next the agonist is added to the mixture and fluorescence monitored. The inhibition of Ca^2+ flux in the presence of the compounds to be tested is calculated from the inhibition of maximal fluorescence induced by the agonist. IC50 values are calculated from dose-response curves obtained with the compounds. […] For example, compounds of Example 1, 18 and 52 have an IC50 of 10, 9 and 4, respectively.
(In general: A change in cytosolic calcium serves as a functional read-out for many receptors and channels.)

Test [2] deals with T1, Human CCR5. The test is described as follows: CCR5 membrane binding assay (125-I MIP-1α radioligand).
Description: a) CCR5 Membrane Binding Assay
Human CCR5 is used to generate stable transfectants in CHO K1 cells. Membranes prepared from these CCR5 transfectants are used In a radioligand binding assay using 125-I MIP-1α as a ligand and the compounds of formula I are tested for inhibitory activity. The data are reported as IC50, i.e. the concentration of compound required to achieve 50% inhibition of [I-125]MIP-1α binding.

T1 sequence (P51681 whole entry): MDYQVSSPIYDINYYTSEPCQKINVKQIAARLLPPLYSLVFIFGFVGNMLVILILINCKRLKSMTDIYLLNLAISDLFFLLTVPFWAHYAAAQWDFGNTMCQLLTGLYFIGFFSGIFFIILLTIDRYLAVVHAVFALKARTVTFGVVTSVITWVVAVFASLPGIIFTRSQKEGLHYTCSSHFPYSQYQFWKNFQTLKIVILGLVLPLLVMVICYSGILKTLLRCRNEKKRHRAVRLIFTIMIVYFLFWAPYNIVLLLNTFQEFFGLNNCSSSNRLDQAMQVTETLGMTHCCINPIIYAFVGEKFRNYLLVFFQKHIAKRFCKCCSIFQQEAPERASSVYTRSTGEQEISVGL

Regarding `CC1(N2CCC(N(c3ccccc3)c3ccccc3)CC2)CCN(C(=O)c2c(Cl)c[n+]([O-])cc2Cl)CC1` [Example 18], in test [1] (CCR5-transfected CHO K1 cells, agonist MIP-1α, MIP-1β, HCC-1(9-74) or RANTES, Fluo3 or Fluo4, read-out: IC50, inhibition of Ca2+ flux), the IC50 turned out to be 9 nM.
In turn, `Cc1cccc(C)c1C(=O)N1CCC(C)(N2CCC(N(Cc3ccccc3)c3ccc(Br)cc3)CC2)CC1` [Example 52, {4-[Benzyl-(4-bromo-phenyl)amino]-4′-methyl-[1,4′]bipiperidinyl-1′-yl}-(2,6-dimethyl-phenyl)-methanone] had an IC50 in test [1] of 4 nM.
For the compound `Cc1nc(CN(c2ccccc2)C2CCN(C3(C)CCN(C(=O)c4c(C)cc[n+]([O-])c4C)CC3)CC2)cs1` [Example 83, (2,4-Dimethyl-1-oxy-pyridin-3-yl)-{4′-methyl-4-[(2-methyl-thiazol-4-ylmethyl)-phenyl-amino]-[1,4′]bipiperidinyl-1′-yl}-methanone], the IC50 in test [2] lay in the range of 2 to 3 nM.

As a reminder, the IC50 is the concentration needed to halve the response being measured.
